Values after ≈ are worked out from the molar mass of the structure shown.
Legend:
[1] = Protein binding in human plasma assessed as unbound fraction at 10 uM measured after 16 hrs by LC-MS/MS based equilibrium dialysis method; format: ADME, cell-free
Staphylococcus aureus [2] = experiment: Antibacterial activity against methicillin sensitive Staphylococcus aureus ARC516 by broth microdilution method; format: functional
[3] = n-octanol/phosphate buffer partition coefficient, log D of the compound at pH 7.4 measured after 1 hr by UV-LC/MS based shake flask method; format: physicochemical
[4] = Ratio of MIC for antibacterial activity against methicillin/quinolone-resistant Staphylococcus aureus ARC517 to protein binding in human plasma assessed as unbound fraction
Staphylococcus aureus [5] = experiment: Antibacterial activity against methicillin sensitive Staphylococcus aureus ARC516 in presence of human serum by broth microdilution method; format: functional
Escherichia coli = experiment: Antibacterial activity against Escherichia coli ARC523 by broth microdilution method; format: functional
[6] = Solubility of the compound by high throughput solubility assay; format: physicochemical
Staphylococcus aureus [7] = experiment: Antibacterial activity against methicillin/quinolone-resistant Staphylococcus aureus ARC517 by broth microdilution method; format: functional
[8] = Inhibition of recombinant Escherichia coli DNA gyrase AB expressed in Escherichia coli BL21 (DE3) using relaxed pJT519 DNA as substrate preincubated for 20 mins followed by 5'-BODIPY-TMR-TTCTTCTTCT addition and measured after 1 hr by fluorescence anisotropy
Streptococcus pyogenes = experiment: Antibacterial activity against Streptococcus pyogenes ARC838 by broth microdilution method; format: functional
L5178Y = experiment: Genotoxicity in mouse L5178Y cells using DAPI staining by microscopy based micronucleation assay; format: toxicity, cell-based
Haemophilus influenzae = experiment: Antibacterial activity against Haemophilus influenzae ARC737 by broth microdilution method; format: functional
Streptococcus pneumoniae = experiment: Antibacterial activity against Streptococcus pneumoniae ARC548 by broth microdilution method; format: functional
[9] = Plasma clearance in Wistar Han rat at 3 mg/kg, iv administered as 15 mins infusion by LC-MS/MS analysis; format: ADME, organism-based; parameters: unit not given here; settings: in vivo, 0.25 h
[10] = Unbound plasma clearance in Wistar Han rat at 3 mg/kg, iv administered as 15 mins infusion by LC-MS/MS analysis; format: ADME, organism-based; parameters: unit not given here; settings: in vivo, 0.25 h

Structure (SMILES) | fraction unbound at 16 h, 10 µM [1] | MIC (Staphylococcus aureus [2]) [µM] | logD at 1 h [3] | Ratio [4] | MIC (Staphylococcus aureus [5]) [µM] | MIC (Escherichia coli) [µM] | solubility [6] [µM] | MIC (Staphylococcus aureus [7]) [µM] | IC50 [8] [µM] | MIC (Streptococcus pyogenes) [µM] | NOAEL (L5178Y) [µM] | MIC (Haemophilus influenzae) [µM] | MIC (Streptococcus pneumoniae) [µM] | CL [9] | CL free [10]
C[C@@H]1CN2c3c(cc4c(-n5nccn5)noc4c3F)CC3(C(=O)NC(=O)NC3=O)[C@H]2[C@H](C)O1 | 0.031 | < 0.2 | 1.95 | 25 | 1.56 | 12.5 (≈ 5.69 µg/mL) | 810 (≈ 369 µg/mL) | 0.78 (≈ 0.355 µg/mL) | 0.24 | – | – | – | – | – | –
CNc1ncnn1-c1noc2c(F)c3c(cc12)CC1(C(=O)NC(=O)NC1=O)[C@H]1[C@H](C)O[C@H](C)CN31 | 0.08 | 0.049 (≈ 0.0237 µg/mL) | 2.1 | – | < 0.2 | 16 (≈ 7.75 µg/mL) | 280 (≈ 136 µg/mL) | 0.2 (≈ 0.0969 µg/mL) | 0.071 | 0.19 (≈ 0.092 µg/mL) | 3 | 0.39 (≈ 0.189 µg/mL) | 0.19 (≈ 0.092 µg/mL) | 32 | 190
C[C@@H]1CN2c3c(cc4c(-n5ncnc5CN(C)C)noc4c3F)CC3(C(=O)NC(=O)NC3=O)[C@H]2[C@H](C)O1 | 0.18 | < 0.2 | 0.93 | – | 0.39 | 50 (≈ 25.6 µg/mL) | > 1000 | 0.78 (≈ 0.4 µg/mL) | 0.59 | 1.6 (≈ 0.82 µg/mL) | – | 1.6 (≈ 0.82 µg/mL) | 1.6 (≈ 0.82 µg/mL) | 23 | 110
CCNc1ncnn1-c1noc2c(F)c3c(cc12)CC1(C(=O)NC(=O)NC1=O)[C@H]1[C@H](C)O[C@H](C)CN31 | 0.037 | 0.049 (≈ 0.0244 µg/mL) | 2.2 | – | < 0.2 | 12 (≈ 5.98 µg/mL) | 3 (≈ 1.5 µg/mL) | 0.098 (≈ 0.0489 µg/mL) | 0.097 | < 0.2 | – | 0.39 (≈ 0.194 µg/mL) | < 0.2 | 11 | 130
COCc1ncnn1-c1noc2c(F)c3c(cc12)CC1(C(=O)NC(=O)NC1=O)[C@H]1[C@H](C)O[C@H](C)CN31 | 0.14 | < 0.2 | 1.7 | – | 0.39 | 70 (≈ 35 µg/mL) | 890 (≈ 445 µg/mL) | 0.39 (≈ 0.195 µg/mL) | 1.1 | 0.78 (≈ 0.39 µg/mL) | 12 | 0.78 (≈ 0.39 µg/mL) | 0.78 (≈ 0.39 µg/mL) | 17 | 120
CNS(=O)(=O)c1cnn(-c2noc3c(F)c4c(cc23)CC2(C(=O)NC(=O)NC2=O)[C@H]2[C@H](C)O[C@H](C)CN42)c1 | 0.068 | 0.39 (≈ 0.214 µg/mL) | 2.2 | 23 | 1.6 | 50 (≈ 27.4 µg/mL) | 21 (≈ 11.5 µg/mL) | 1.56 (≈ 0.854 µg/mL) | 0.61 | – | – | – | – | – | –
C[C@@H]1CN2c3c(cc4c(-n5ncnc5CO)noc4c3F)CC3(C(=O)NC(=O)NC3=O)[C@H]2[C@H](C)O1 | 0.17 | 0.31 (≈ 0.15 µg/mL) | 1.4 | – | 0.49 | 50 (≈ 24.3 µg/mL) | > 1000 | 1.6 (≈ 0.777 µg/mL) | 0.19 | 0.78 (≈ 0.379 µg/mL) | 12 | 0.78 (≈ 0.379 µg/mL) | 0.39 (≈ 0.189 µg/mL) | 37 | 220
C[C@@H]1CN2c3c(cc4c(-n5cnnc5)noc4c3F)CC3(C(=O)NC(=O)NC3=O)[C@H]2[C@H](C)O1 | 0.34 | 6.25 (≈ 2.85 µg/mL) | 0.54 | 74 | 12.5 | > 200 | > 1000 | 25 (≈ 11.4 µg/mL) | 0.3 | – | – | – | – | – | –
C[C@@H]1CN2c3c(cc4c(-n5cccn5)noc4c3F)CC3(C(=O)NC(=O)NC3=O)[C@H]2[C@H](C)O1 (racemic) | < 0.01 | 0.39 (≈ 0.177 µg/mL) | 3 | >80 | 3.1 | 25 (≈ 11.4 µg/mL) | 29 (≈ 13.2 µg/mL) | 0.78 (≈ 0.354 µg/mL) | – | – | – | – | – | – | –
C[C@@H]1CN2c3c(cc4c(-n5ccnc5)noc4c3F)CC3(C(=O)NC(=O)NC3=O)[C@H]2[C@H](C)O1 (racemic) | 0.031 | 1.56 (≈ 0.709 µg/mL) | 2 | 400 | 12.5 | 50 (≈ 22.7 µg/mL) | 12 (≈ 5.45 µg/mL) | 12.5 (≈ 5.68 µg/mL) | 0.49 | – | – | – | – | – | –
C[C@@H]1CN2c3c(cc4c(-n5cnc(C#N)n5)noc4c3F)CC3(C(=O)NC(=O)NC3=O)[C@H]2[C@H](C)O1 | – | 0.2 (≈ 0.0961 µg/mL) | 2 | – | 3.1 | 100 (≈ 48 µg/mL) | 5 (≈ 2.4 µg/mL) | 0.39 (≈ 0.187 µg/mL) | 1.3 | 0.8 (≈ 0.384 µg/mL) | < 6 | 3.1 (≈ 1.49 µg/mL) | 1.6 (≈ 0.769 µg/mL) | 200 | 2600
C[C@@H]1CN2c3c(cc4c(-n5ncnc5NCCN(C)C)noc4c3F)CC3(C(=O)NC(=O)NC3=O)[C@H]2[C@H](C)O1 | 0.53 | 0.78 (≈ 0.422 µg/mL) | 1.4 | – | 0.78 | 50 (≈ 27.1 µg/mL) | > 1000 | 6.2 (≈ 3.36 µg/mL) | 0.15 | 0.39 (≈ 0.211 µg/mL) | > 400 | 1.6 (≈ 0.866 µg/mL) | 0.39 (≈ 0.211 µg/mL) | – | –
C[C@@H]1CN2c3c(cc4c(-n5ccnn5)noc4c3F)CC3(C(=O)NC(=O)NC3=O)[C@H]2[C@H](C)O1 | 0.054 | 0.068 (≈ 0.031 µg/mL) | 2 | 7.2 | 0.78 | 6.25 (≈ 2.85 µg/mL) | 130 (≈ 59.2 µg/mL) | 0.39 (≈ 0.178 µg/mL) | 0.22 | – | – | – | – | – | –
C[C@@H]1CN2c3c(cc4c(-n5cc(C#N)cn5)noc4c3F)CC3(C(=O)NC(=O)NC3=O)[C@H]2[C@H](C)O1 | 0.044 | < 0.2 | 2.4 | 4.5 | 0.39 | 25 (≈ 12 µg/mL) | 10 (≈ 4.79 µg/mL) | 0.2 (≈ 0.0959 µg/mL) | 0.4 | – | – | – | – | – | –
C[C@@H]1CN2c3c(cc4c(-n5cncn5)noc4c3Cl)CC3(C(=O)NC(=O)NC3=O)[C@H]2[C@H](C)O1 | 0.074 | < 0.2 | 2 | – | 0.39 | 12 (≈ 5.66 µg/mL) | 420 (≈ 198 µg/mL) | 0.39 (≈ 0.184 µg/mL) | 0.12 | 0.39 (≈ 0.184 µg/mL) | < 6 | 0.78 (≈ 0.368 µg/mL) | 0.39 (≈ 0.184 µg/mL) | 11.6 | 156

From ChEMBL document CHEMBL4725408, “Antibacterial Spiropyrimidinetriones with N-Linked Azole Substituents on a Benzisoxazole Scaffold Targeting DNA Gyrase” (J Med Chem, 2020)
